Our source for the IC50 values is patent US12686873B2, “Plants having increased tolerance to herbicides” (priority 2012, dated 2026).

Where “and” joins values, the source holds several entries; their conditions need not be identical. Equal values may be shown once.

Holding throughout (experiment): biochemical
Assay [1] has as its target wild type and amino acid substituted PPO enzyme (Amaranthus tuberculatus, UniProt Q0NZW5).
Assay [2] deals with wild type and amino acid substituted PPO enzyme (Amaranthus tuberculatus, UniProt Q0NZW9, F204I/F420A/F457M/L400A). The note with it: IC50 (M).
For assay [3], the target named is wild type and amino acid substituted PPO enzyme (Amaranthus tuberculatus, UniProt Q0NZW9, F204I/F420V). The note with it: IC50 (M).
In assay [4] the target is wild type and amino acid substituted PPO enzyme (Amaranthus tuberculatus, UniProt Q0NZW9, F204I/F420V/F457M). The note with it: IC50 (M).
For assay [5], the target named is wild type and amino acid substituted PPO enzyme (Amaranthus tuberculatus, UniProt Q0NZW9, F204I/F420V/F457M/L400A/R128A). To be noted: IC50 (M).
For assay [6], the target named is wild type and amino acid substituted PPO enzyme (Amaranthus tuberculatus, UniProt Q0NZW9, F204I/F420V/F457M/L400A/T208S). To be noted: IC50 (M).
The target of assay [7] is wild type and amino acid substituted PPO enzyme (Amaranthus tuberculatus, UniProt Q0NZW9, F204I/F420V/F457M/R128A). The note with it: IC50 (M).
The target in assay [8] is wild type and amino acid substituted PPO enzyme (Amaranthus tuberculatus, UniProt Q0NZW9, F204I/F420V/F457M/T208S). The note with it: IC50 (M).
In assay [9] the target is wild type and amino acid substituted PPO enzyme (Amaranthus tuberculatus, UniProt Q0NZW9, F204I/F420V/L400A). To be noted: IC50 (M).
The target of assay [10] is wild type and amino acid substituted PPO enzyme (Amaranthus tuberculatus, UniProt Q0NZW9, F204I/F420V/T208S). To be noted: IC50 (M).
For assay [11], the target named is wild type and amino acid substituted PPO enzyme (Amaranthus tuberculatus, UniProt Q0NZW9, F204I/F457M). To be noted: IC50 (M).
Sequence of wild type and amino acid substituted PPO enzyme (Amaranthus tuberculatus, UniProt Q0NZW9, F204I/F457M) (Q0NZW9 1-534 F204I/F457M): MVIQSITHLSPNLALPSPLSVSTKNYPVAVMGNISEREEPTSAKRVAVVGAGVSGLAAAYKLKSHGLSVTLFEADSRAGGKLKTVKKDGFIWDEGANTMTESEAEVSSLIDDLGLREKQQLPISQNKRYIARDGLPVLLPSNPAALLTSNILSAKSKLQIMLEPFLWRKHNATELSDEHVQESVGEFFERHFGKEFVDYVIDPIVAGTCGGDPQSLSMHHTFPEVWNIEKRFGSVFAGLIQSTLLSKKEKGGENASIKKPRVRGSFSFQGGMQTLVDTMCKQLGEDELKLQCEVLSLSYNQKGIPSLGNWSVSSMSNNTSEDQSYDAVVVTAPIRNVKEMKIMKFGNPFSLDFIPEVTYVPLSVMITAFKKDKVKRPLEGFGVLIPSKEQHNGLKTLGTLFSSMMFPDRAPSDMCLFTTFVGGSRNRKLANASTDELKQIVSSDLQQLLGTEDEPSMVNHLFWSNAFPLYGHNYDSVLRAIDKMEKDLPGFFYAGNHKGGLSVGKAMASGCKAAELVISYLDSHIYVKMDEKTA
In assay [12] the target is wild type and amino acid substituted PPO enzyme (Amaranthus tuberculatus, UniProt Q0NZW9, F204I/F457M/L400A/T208S). The note with it: IC50 (M).
Assay [13] has as its target wild type and amino acid substituted PPO enzyme (Amaranthus tuberculatus, UniProt Q0NZW9, F204I/F457M/T208S). The note with it: IC50 (M).
The target in assay [14] is wild type and amino acid substituted PPO enzyme (Amaranthus tuberculatus, UniProt Q0NZW9, F204I/L397D/L400A/T208S). The note with it: IC50 (M).
Assay [15] addresses wild type and amino acid substituted PPO enzyme (Amaranthus tuberculatus, UniProt Q0NZW9, F204I/L397D/T208S). To be noted: IC50 (M).
Assay [16] concerns the target wild type and amino acid substituted PPO enzyme (Amaranthus tuberculatus, UniProt Q0NZW9, F204I/L400A). The note with it: IC50 (M).
Assay [17] concerns the target wild type and amino acid substituted PPO enzyme (Amaranthus tuberculatus, UniProt Q0NZW9, F204I/L400A/T208S). The note with it: IC50 (M).
For assay [18], the target named is wild type and amino acid substituted PPO enzyme (Amaranthus tuberculatus, UniProt Q0NZW9, F204I/T208S). To be noted: IC50 (M).
Sequence of wild type and amino acid substituted PPO enzyme (Amaranthus tuberculatus, UniProt Q0NZW9, F204I/T208S) (Q0NZW9 1-534 F204I/T208S): as the sequence (Q0NZW9 1-534 F204I/F457M) above, with T208S, M457F counted along it
In assay [19] the target is wild type and amino acid substituted PPO enzyme (Amaranthus tuberculatus, UniProt Q0NZW9, F420M/L397A). To be noted: IC50 (M).
For assay [20], the target named is wild type and amino acid substituted PPO enzyme (Amaranthus tuberculatus, UniProt Q0NZW9, F420M/L397C). The note with it: IC50 (M).
Assay [21] has as its target wild type and amino acid substituted PPO enzyme (Amaranthus tuberculatus, UniProt Q0NZW9, F420M/L397D). The note with it: IC50 (M).
Assay [22] addresses wild type and amino acid substituted PPO enzyme (Amaranthus tuberculatus, UniProt Q0NZW9, F420M/L397S). To be noted: IC50 (M).
In assay [23] the target is wild type and amino acid substituted PPO enzyme (Amaranthus tuberculatus, UniProt Q0NZW9, F420M/L397V). To be noted: IC50 (M).
The target of assay [24] is wild type and amino acid substituted PPO enzyme (Amaranthus tuberculatus, UniProt Q0NZW9, F420V/F457M). To be noted: IC50 (M).
The target of assay [25] is wild type and amino acid substituted PPO enzyme (Amaranthus tuberculatus, UniProt Q0NZW9, F420V/F457M/T208S). The note with it: IC50 (M).
Assay [26] deals with wild type and amino acid substituted PPO enzyme (Amaranthus tuberculatus, UniProt Q0NZW9, F420V/L397C). To be noted: IC50 (M).
In assay [27] the target is wild type and amino acid substituted PPO enzyme (Amaranthus tuberculatus, UniProt Q0NZW9, F420V/L397Q). To be noted: IC50 (M).
For assay [28], the target named is wild type and amino acid substituted PPO enzyme (Amaranthus tuberculatus, UniProt Q0NZW9, F420V/L397S). To be noted: IC50 (M).
Assay [29] addresses wild type and amino acid substituted PPO enzyme (Amaranthus tuberculatus, UniProt Q0NZW9, F420V/L397T). To be noted: IC50 (M).
Assay [30] addresses wild type and amino acid substituted PPO enzyme (Amaranthus tuberculatus, UniProt Q0NZW9, F420V/L397V). To be noted: IC50 (M).
Assay [31] deals with wild type and amino acid substituted PPO enzyme (Amaranthus tuberculatus, UniProt Q0NZW9, F420V/R128A/T208S). To be noted: IC50 (M).
Sequence of wild type and amino acid substituted PPO enzyme (Amaranthus tuberculatus, UniProt Q0NZW9, F420V/R128A/T208S) (Q0NZW9 1-534 R128A/T208S/F420V): as the sequence (Q0NZW9 1-534 F204I/F457M) above, with R128A, I204F, T208S, F420V, M457F counted along it
Assay [32] deals with wild type and amino acid substituted PPO enzyme (Amaranthus tuberculatus, UniProt Q0NZW9, F420V/T208S). To be noted: IC50 (M).
Assay [33] addresses wild type and amino acid substituted PPO enzyme (Amaranthus tuberculatus, UniProt Q0NZW9, F457M/L400A). To be noted: IC50 (M).
For assay [34], the target named is wild type and amino acid substituted PPO enzyme (Amaranthus tuberculatus, UniProt Q0NZW9, F457M/L400A/T208S). To be noted: IC50 (M).
Assay [35] deals with wild type and amino acid substituted PPO enzyme (Amaranthus tuberculatus, UniProt Q0NZW9, F457M/T208S). To be noted: IC50 (M).
Sequence of wild type and amino acid substituted PPO enzyme (Amaranthus tuberculatus, UniProt Q0NZW9, F457M/T208S) (Q0NZW9 1-534 T208S/F457M): as the sequence (Q0NZW9 1-534 F204I/F457M) above, with I204F, T208S counted along it
In assay [36] the target is wild type and amino acid substituted PPO enzyme (Amaranthus tuberculatus, UniProt Q0NZW9, L397D/R128A). To be noted: IC50 (M).
Sequence of wild type and amino acid substituted PPO enzyme (Amaranthus tuberculatus, UniProt Q0NZW9, L397D/R128A) (Q0NZW9 1-534 R128A/L397D): as the sequence (Q0NZW9 1-534 F204I/F457M) above, with R128A, I204F, L397D, M457F counted along it
For assay [37], the target named is wild type and amino acid substituted PPO enzyme (Amaranthus tuberculatus, UniProt Q0NZW9, L397D/T208S). To be noted: IC50 (M).
Sequence of wild type and amino acid substituted PPO enzyme (Amaranthus tuberculatus, UniProt Q0NZW9, L397D/T208S) (Q0NZW9 1-534 T208S/L397D): as the sequence (Q0NZW9 1-534 F204I/F457M) above, with I204F, T208S, L397D, M457F counted along it

Sequence of wild type and amino acid substituted PPO enzyme (Amaranthus tuberculatus, UniProt Q0NZW9, F204I/F457M/T208S) (Q0NZW9 1-534 F204I/T208S/F457M): as the sequence (Q0NZW9 1-534 F204I/F457M) above, with T208S counted along it
Sequence of wild type and amino acid substituted PPO enzyme (Amaranthus tuberculatus, UniProt Q0NZW5) (Q0NZW5 entry or part of it): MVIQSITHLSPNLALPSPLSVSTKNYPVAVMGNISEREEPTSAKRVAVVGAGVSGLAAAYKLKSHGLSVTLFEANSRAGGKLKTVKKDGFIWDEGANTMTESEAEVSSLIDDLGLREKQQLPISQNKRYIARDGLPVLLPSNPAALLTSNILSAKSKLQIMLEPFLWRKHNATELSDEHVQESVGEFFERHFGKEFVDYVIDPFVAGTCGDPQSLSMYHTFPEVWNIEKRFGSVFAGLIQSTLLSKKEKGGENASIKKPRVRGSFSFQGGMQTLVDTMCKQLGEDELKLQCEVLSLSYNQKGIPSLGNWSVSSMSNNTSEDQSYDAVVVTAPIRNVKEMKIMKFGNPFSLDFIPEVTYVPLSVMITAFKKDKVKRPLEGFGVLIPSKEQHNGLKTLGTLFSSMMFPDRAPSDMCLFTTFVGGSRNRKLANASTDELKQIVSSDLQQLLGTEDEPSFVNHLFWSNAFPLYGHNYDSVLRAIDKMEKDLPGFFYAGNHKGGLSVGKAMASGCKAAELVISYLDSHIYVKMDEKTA
Sequence of wild type and amino acid substituted PPO enzyme (Amaranthus tuberculatus, UniProt Q0NZW9, F420M/L397D) (Q0NZW9 1-534 L397D/F420M): as the sequence (Q0NZW9 1-534 F204I/F457M) above, with I204F, L397D, F420M, M457F counted along it

Take `C#CCN1C(=O)C(F)(F)Oc2cc(F)c(-n3c(=O)n(C)c(=S)n(C)c3=O)cc21`: the IC50 was 2.12 nM in assay [1]; 3.69e-08 M in [2]; 4.69e-09 M in assay [3]; 2.1e-09 M in assay [4]; 4.05e-07 M in assay [5]; 9.24e-08 M in [6]. In addition, the half-inhibitory concentration (IC50) came out at 4.63e-08 M in assay [7]; 4.72e-09 M in assay [8]; 8.23e-08 M in [9]; 3.87e-09 M in assay [10]; 7.52e-11 M in assay [11]; 2.88e-11 M in [12]. For the same compound, the 50% inhibitory concentration (IC50) in assay [13] is 4.21e-11 M and 1.7e-10 M; in [14], 2.38e-09 M; in assay [15], 5.52e-11 M; in [16], 4.57e-11 M; in assay [17], 2.64e-11 M; in [18] it was 1.29e-10 M. Besides, the IC50 worked out at 4.53e-09 M in assay [19]; 1.79e-09 M in [20]; 2.95e-08 M in assay [21]; 3.33e-09 M in [22]; 1.05e-09 M in assay [23]; 1.02e-09 M in assay [24]. Moreover, the IC50 in [25] turned out to be 3.41e-09 M; in assay [26] it was 5.54e-08 M; in assay [27], 1.01e-07 M; in [28], 4.26e-08 M; in assay [29] it was 1.31e-08 M; in assay [30] it was 1.21e-08 M. The IC50 in assay [31] was 1.25e-08 M; in assay [32] it was 2.34e-09 M; in assay [33] it was 1.35e-11 M; in assay [34] it was 9.68e-12 M; in assay [35] it was 1.95e-10 M; in [36] it was 5.9e-09 M. This compound also returned a concentration for half-maximal inhibition (IC50) in assay [37] of 1.25e-10 M.

`CC(C)N(C)S(=O)(=O)NC(=O)c1cc(-n2c(=O)cc(C(F)(F)F)n(C)c2=O)c(F)cc1Cl` [saflufenacil]: the IC50 was 1600 nM in assay [1]; 1.89e-11 M in assay [11]; 5.11e-11 M in assay [13]; 5.89e-11 M in [18]; > 1e-05 M in assay [21]; > 1e-05 M in assay [27]. In addition, the IC50 in assay [31] was > 1e-05 M; in assay [32] it was 8.48e-07 M; in assay [35] it was 1.02e-10 M; in assay [36], ≥ 1e-05 M; in [37] it was 4.08e-07 M.
